Experimental data taken from patent US20140135310A1, “SULPHONAMIDE DERIVATIVES OF ALICYCLIC AMINES FOR THE TREATMENT OF CENTRAL NERVOUS SYSTEM DISEASES” (Adamed Sp. z o.o., priority 2011, published 2014).

Tests used:
[1] = biological target: T1, 5-HT1A receptor (rat hippocampus) (Rattus norvegicus, UniProt P19327); experiment: Radioligand binding assay, serotoninergic 5-HT1A receptors; conditions: binding assay result in %, Table 5a;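 note: test compound at 1 µM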
T1 construct: hippocampus; from tissue; host or cells: rat hippocampus
T1 sequence (P19327 1-422): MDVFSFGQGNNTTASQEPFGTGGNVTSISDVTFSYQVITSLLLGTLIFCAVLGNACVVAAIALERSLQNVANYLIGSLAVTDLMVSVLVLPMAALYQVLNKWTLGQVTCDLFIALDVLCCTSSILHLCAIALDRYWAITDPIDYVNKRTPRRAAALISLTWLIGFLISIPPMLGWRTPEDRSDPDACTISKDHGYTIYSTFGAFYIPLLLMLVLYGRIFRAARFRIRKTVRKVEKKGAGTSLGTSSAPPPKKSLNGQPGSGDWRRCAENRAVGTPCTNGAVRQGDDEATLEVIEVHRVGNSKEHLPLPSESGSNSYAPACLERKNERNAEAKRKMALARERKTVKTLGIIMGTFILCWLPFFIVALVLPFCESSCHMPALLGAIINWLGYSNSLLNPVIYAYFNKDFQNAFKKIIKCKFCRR

[2] = biological target: T2, H1 histaminergic receptors (Homo sapiens, UniProt P35367); experiment: Radioligand binding assay, histaminergic H1 receptors; conditions: human recombinant (HEK-293 cells), [3H]pyrilamine 1 nM
T2 construct: expressed in transfected cells; host or cells: HEK-293 cells
T2 sequence (P35367 whole entry): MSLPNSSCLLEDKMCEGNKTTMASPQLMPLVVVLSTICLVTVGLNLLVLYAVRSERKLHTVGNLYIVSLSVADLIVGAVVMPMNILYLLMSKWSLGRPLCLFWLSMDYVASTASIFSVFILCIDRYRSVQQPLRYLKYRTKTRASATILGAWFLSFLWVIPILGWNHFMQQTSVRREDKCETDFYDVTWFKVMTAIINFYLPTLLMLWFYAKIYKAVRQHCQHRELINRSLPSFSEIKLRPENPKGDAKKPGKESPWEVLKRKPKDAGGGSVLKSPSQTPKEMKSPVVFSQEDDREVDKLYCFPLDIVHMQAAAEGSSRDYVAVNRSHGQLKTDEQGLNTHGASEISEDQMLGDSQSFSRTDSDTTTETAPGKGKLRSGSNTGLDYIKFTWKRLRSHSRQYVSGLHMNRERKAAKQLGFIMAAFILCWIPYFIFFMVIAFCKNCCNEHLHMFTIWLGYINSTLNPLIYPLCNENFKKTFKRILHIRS
Procedure, shortened: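 Competition binding at human H1 receptors; specific binding taken as total minus non-specific binding in excess unlabelled ligand, scintillation read-out. IC50 from Hill-equation fit of competition curves; Ki by Cheng-Prusoff using radioligand concentration and Kd (from Scatchard plot).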

σ receptors = experiment: Radioligand binding assay, σ receptors; conditions: rat cerebral cortex, [3H]DTG 8 nM
Text: The specific ligand binding to the receptors is defined as the difference between the total binding and the non-specific binding determined in the presence of the excess of unlabelled ligand.
The results are expressed as a percent of control specific binding ((measured specific binding/control specific binding)×100) and as a percent inhibition of control specific binding (100−((measured specific binding/control specific binding)×100)) obtained in the presence of the test compounds. The specific ligand binding to the receptors is defined as the difference between the total binding and the nonspecific binding determined in the presence of an excess of unlabelled ligand. Scintillation counting was the method of detection of ligand binding. The IC50 values (concentration causing a half-maximal inhibition of control specific binding) were determined by non-linear regression analysis of the competition curves generated with mean replicate values using Hill equation curve fitting (Y=D+[(A−D)/(1+(C/C50)nH)], where Y=specific binding, D=minimum specific binding, A=maximum specific binding, C=compound concentration, C50=IC50, and nH=slope factor). […] The inhibition constants (Ki) were calculated using the Cheng Prusoff equation (Ki=IC50/(1+(L/KD)), where L=concentration of radioligand in the assay, and KD=affinity of the radioligand for the receptor). A scatchard plot was used to determine the Kd.

5-HT7 receptor = biological target: T3, 5-HT7 receptor (Homo sapiens, UniProt P34969); experiment: Radioligand binding assay, serotoninergic 5-HT7 receptors; conditions: binding assay result in %, Table 5a;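 note: test compound at 1 µM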
T3 construct: purchased PerkinElmer
T3 sequence (P34969 whole entry): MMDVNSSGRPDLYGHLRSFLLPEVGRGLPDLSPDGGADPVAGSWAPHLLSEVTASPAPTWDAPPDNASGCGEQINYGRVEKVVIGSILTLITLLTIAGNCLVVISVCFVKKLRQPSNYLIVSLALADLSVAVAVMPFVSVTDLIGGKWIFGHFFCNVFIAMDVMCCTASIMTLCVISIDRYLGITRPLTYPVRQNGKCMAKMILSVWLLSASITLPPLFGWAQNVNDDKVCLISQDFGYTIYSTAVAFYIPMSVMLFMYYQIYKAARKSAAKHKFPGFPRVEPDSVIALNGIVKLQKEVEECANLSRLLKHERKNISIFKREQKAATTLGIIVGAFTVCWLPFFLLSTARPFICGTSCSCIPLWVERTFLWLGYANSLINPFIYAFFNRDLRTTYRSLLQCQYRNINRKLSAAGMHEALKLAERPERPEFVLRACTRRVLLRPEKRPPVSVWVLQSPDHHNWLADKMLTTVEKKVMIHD
Procedure, shortened: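 Competition binding at human 5-HT7 receptors with a radioligand, detected by scintillation counting; non-specific binding was defined with excess unlabelled ligand. IC50 came from Hill-equation fits of competition curves, and Ki from Cheng–Prusoff using radioligand concentration and Scatchard-derived KD.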

5-HT2A receptor = biological target: T4, 5-HT2A receptor (Homo sapiens, UniProt P28223); experiment: Radioligand binding assay, serotoninergic 5-HT2A receptors; conditions: binding assay result in %, Table 5a
T4 construct: purchased PerkinElmer
T4 sequence (P28223 whole entry): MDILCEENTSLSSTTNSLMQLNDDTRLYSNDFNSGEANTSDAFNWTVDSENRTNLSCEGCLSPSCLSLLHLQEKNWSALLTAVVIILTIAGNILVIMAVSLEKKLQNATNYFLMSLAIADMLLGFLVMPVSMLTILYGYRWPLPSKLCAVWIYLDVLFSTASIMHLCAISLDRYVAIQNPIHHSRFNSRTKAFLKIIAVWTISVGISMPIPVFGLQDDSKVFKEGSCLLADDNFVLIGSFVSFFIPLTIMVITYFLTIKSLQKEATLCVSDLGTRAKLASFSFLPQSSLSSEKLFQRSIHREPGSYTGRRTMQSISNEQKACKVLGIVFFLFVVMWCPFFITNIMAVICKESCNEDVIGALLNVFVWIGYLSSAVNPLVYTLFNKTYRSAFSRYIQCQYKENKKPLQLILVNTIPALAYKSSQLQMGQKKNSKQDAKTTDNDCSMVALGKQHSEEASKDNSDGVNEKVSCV
Procedure, shortened: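 Radioligand competition binding with scintillation counting; nonspecific binding defined by excess unlabelled ligand. Data as percent inhibition of control specific binding. IC50 by Hill-equation fit of competition curves; Ki by Cheng-Prusoff, with radioligand Kd from Scatchard plot.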

receptors D4.4 = biological target: T5, receptors D4.4 (Homo sapiens, UniProt P21917); experiment: Radioligand binding assay, dopaminergic D4 (D4.4) receptors; conditions: test compound 1×10^−6 M
T5 sequence (P21917 1-419): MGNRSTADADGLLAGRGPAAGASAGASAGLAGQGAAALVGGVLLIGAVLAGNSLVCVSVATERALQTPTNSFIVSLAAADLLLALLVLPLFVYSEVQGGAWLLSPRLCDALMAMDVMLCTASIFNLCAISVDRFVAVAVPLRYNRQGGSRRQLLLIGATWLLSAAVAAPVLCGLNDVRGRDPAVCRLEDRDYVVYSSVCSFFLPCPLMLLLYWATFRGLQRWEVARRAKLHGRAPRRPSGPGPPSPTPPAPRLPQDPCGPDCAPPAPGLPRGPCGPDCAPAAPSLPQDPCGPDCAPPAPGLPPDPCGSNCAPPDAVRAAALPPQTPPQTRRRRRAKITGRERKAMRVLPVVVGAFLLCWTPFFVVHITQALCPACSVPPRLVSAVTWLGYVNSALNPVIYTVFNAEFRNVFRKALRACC
Procedure, shortened: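 Competition radioligand binding at human D2, D3 and D4.4 receptors, detected by scintillation counting; nonspecific binding defined with excess unlabelled ligand. Results as percent inhibition of control specific binding; IC50 by Hill-equation nonlinear regression; Ki via Cheng-Prusoff, with radioligand KD from Scatchard plot.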

[3] = test system: α1 adrenergic receptors (rat cerebral cortex); experiment: Radioligand binding assay, adrenergic α1 receptors; conditions: test compound 1×10^−6 M
Procedure, shortened: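 Values derive from radioligand displacement, with non-specific binding defined by excess cold ligand and detection by scintillation. Hill-fit IC50s were converted to Ki via Cheng-Prusoff using Scatchard-derived Kd; percent inhibition of control specific binding also reported.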

M3 muscarinic receptors = biological target: T6, M3 muscarinic receptors (Homo sapiens, UniProt P20309); experiment: Radioligand binding assay, muscarinic M3 receptors; conditions: test compound 1×10^−6 M
T6 construct: expressed in transfected cells; host or cells: CHO cells
T6 sequence (P20309 whole entry): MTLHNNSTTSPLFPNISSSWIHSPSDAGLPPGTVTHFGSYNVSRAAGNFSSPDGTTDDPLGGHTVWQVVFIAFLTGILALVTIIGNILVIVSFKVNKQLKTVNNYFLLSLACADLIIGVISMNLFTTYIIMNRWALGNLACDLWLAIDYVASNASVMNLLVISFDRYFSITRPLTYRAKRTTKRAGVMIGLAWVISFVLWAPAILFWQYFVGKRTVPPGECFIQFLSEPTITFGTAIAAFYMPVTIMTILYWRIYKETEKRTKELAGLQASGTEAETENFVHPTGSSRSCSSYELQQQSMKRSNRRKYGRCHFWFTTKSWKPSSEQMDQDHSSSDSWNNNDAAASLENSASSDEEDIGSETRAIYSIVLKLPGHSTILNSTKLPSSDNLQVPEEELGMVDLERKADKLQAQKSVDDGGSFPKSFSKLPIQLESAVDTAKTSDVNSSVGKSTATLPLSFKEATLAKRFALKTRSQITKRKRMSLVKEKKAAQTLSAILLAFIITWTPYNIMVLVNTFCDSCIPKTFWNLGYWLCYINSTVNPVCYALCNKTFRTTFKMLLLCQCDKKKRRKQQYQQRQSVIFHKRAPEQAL
Procedure, shortened: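 Radioligand competition binding, detected by scintillation counting; non-specific binding defined with excess unlabelled ligand. Results given as % inhibition of control specific binding; IC50 from Hill-equation fit of competition curves, Ki via Cheng-Prusoff with radioligand KD from Scatchard plot.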

Compound | inhibition at 1 µM [1] [%] | inhibition at 1 µM [2] [%] | σ [%] (σ receptors) | inhibition at 1 µM (5-HT7 receptor) [%] | inhibition at 1 µM (5-HT2A receptor) [%] | inhibition at 1 µM (receptors D4.4) [%] | α1 [%] [3] [%] | inhibition at 1 µM (M3 muscarinic receptors) [%] | 5-HT1A [%] [1] [%] | H1 [%] [2] [%] | 5-HT7 [%] (5-HT7 receptor) | 5-HT2A [%] (5-HT2A receptor) | D4.4 [%] (receptors D4.4) | M3 [%] (M3 muscarinic receptors)
O=S(=O)(NC1CCN(CCCc2noc3cc(F)ccc23)C1)c1cc2ccccc2s1 (centres unmarked) [Compound 25, N-[1-[3-(6-Fluoro-1,2-benzoxazol-3-yl)propyl]pyrrolidin-3-yl]-benzothiophene-2-sulphonamide] | 74 | 75 | 70 | 98 | 102 | 84 | 85 | 23 | – | – | – | – | – | –
Cc1c(S(=O)(=O)NC2CCN(CCCc3noc4cc(F)ccc34)C2)sc2ccc(F)cc12 (centres unmarked) [Compound 28, 5-Fluoro-N-[1-[3-(6-fluoro-1,2-benzoxazol-3-yl)propyl]pyrrolidin-3-yl]-3-methyl-benzothiophene-2-sulphonamide] | 61 | 63 | 70 | 94 | 101 | 75 | 70 | 13 | – | – | – | – | – | –
O=S(=O)(NC1CCN(CCCc2noc3cc(F)ccc23)CC1)c1cccc2ccccc12 [Compound 34, N-[1-[3-(6-Fluoro-1,2-benzoxazol-3-yl)propyl]-4-piperidine]-naphthalene-1-sulphonamide] | 32 | 56 | 50 | 100 | 98 | 37 | 91 | 12 | – | – | – | – | – | –
O=S(=O)(NC1CN(CCOc2cccc3[nH]ccc23)C1)c1ccc(F)cc1 [Compound 46, 4-Fluoro-N-[1-[2-(1H-indol-4-yloxy)ethyl]azetidin-3-yl]benzene-sulphonamide] | 101 | 6 | 15 | 100 | 34 | 72 | 85 | -13 | – | – | – | – | – | –
O=S(=O)(NC1CN(CCOc2cccc3[nH]ccc23)C1)c1cccc(Cl)c1 [Compound 47, 3-Chloro-N-[1-[2-(1H-indol-4-yloxy)ethyl]azetidin-3-yl]benzene-sulphonamide] | 98 | -3 | 44 | 100 | 80 | 80 | 71 | -8 | – | – | – | – | – | –
Cc1cccc(S(=O)(=O)NC2CN(CCOc3cccc4[nH]ccc34)C2)c1 [Compound 48, N-[1-[2-(1H-Indol-4-yloxy)ethyl]azetidin-3-yl]-3-methyl-benzenesulphonamide] | 100 | 21 | 18 | 98 | 88 | 80 | 87 | 1 | – | – | – | – | – | –
O=S(=O)(NC1CN(CCOc2cccc3[nH]ccc23)C1)c1ccc2ccccc2c1 [Compound 50, N-[1-[2-(1H-Indol-4-yloxy)ethyl]azetidin-3-yl]naphthalene-2-sulphonamide] | 101 | 34 | 59 | 99 | 97 | 94 | 88 | 2 | – | – | – | – | – | –
O=S(=O)(NC1CCN(CCOc2cccc3[nH]ccc23)CC1)c1ccccc1 [Compound 55, N-[1-[2-(1H-Indol-4-yloxy)ethyl]-4-piperidine]benzenesulphonamide] | – | – | 37 | – | – | – | 51 | – | 96 | 0 | 96 | 94 | 31 | −1
O=S(=O)(NC1CCN(CCCc2c[nH]c3ccc(F)cc23)C1)c1ccc(F)cc1 (centres unmarked) [Compound 75, 4-Fluoro-N-[1-[3-(5-fluoro-1H-indol-3-yl)propyl]pyrrolidin-3-yl]benzene-sulphonamide] | 100 | 57 | 75 | 90 | 90 | 76 | 45 | 17 | – | – | – | – | – | –
O=S(=O)(NC1CCN(CCCc2c[nH]c3ccc(F)cc23)C1)c1ccc(Cl)cc1 (centres unmarked) [Compound 77, 4-Chloro-N-[1-[3-(5-fluoro-1H-indol-3-yl)propyl]pyrrolidin-3-yl]-benzenesulphonamide] | 99 | 54 | 48 | 89 | 100 | 78 | 29 | 17 | – | – | – | – | – | –
Cc1cccc(S(=O)(=O)NC2CCN(CCCc3c[nH]c4ccc(F)cc34)C2)c1 (centres unmarked) [Compound 78, N-[1-[3-(5-Fluoro-1H-indol-3-yl)propyl]pyrrolidin-3-yl]-3-methyl-benzenesulphonamide] | 99 | 65 | 70 | 89 | 95 | 79 | 39 | 5 | – | – | – | – | – | –
O=S(=O)(NC1CCN(CCCc2c[nH]c3ccc(F)cc23)C1)c1cccc2ccccc12 (centres unmarked) [Compound 79, N-[1-[3-(5-Fluoro-1H-indol-3-yl)propyl]pyrrolidin-3-yl]naphthalene-1-sulphonamide] | 99 | 72 | 67 | 96 | 99 | 92 | 37 | -3 | – | – | – | – | – | –
O=S(=O)(NC1CCN(CCCc2c[nH]c3ccc(Cl)cc23)C1)c1cccc(F)c1 (centres unmarked) [Compound 82, N-[1-[3-(5-Chloro-1H-indol-3-yl)propyl]pyrrolidin-3-yl]-3-fluoro-benzene-sulphonamide] | 99 | 61 | 63 | 96 | 91 | 94 | 43 | 9 | – | – | – | – | – | –
